Source: ChEMBL document CHEMBL4507278 (2021)

Legend:
[1] = biological target: Calcium/calmodulin-dependent protein kinase type II subunit delta (Homo sapiens) (UniProt Q13557); conditions: Compound concentration 1000.0 nM
[2] = biological target: Peripheral plasma membrane protein CASK (Homo sapiens) (UniProt O14936); conditions: Compound concentration 1000.0 nM
[3] = biological target: Cyclin-dependent kinase 4 (Homo sapiens) (UniProt P11802); conditions: Compound concentration 1000.0 nM
[4] = biological target: Cyclin-dependent kinase-like 5 (Homo sapiens) (UniProt O76039); conditions: Compound concentration 1000.0 nM
[5] = biological target: Serine/threonine-protein kinase Chk2 (Homo sapiens) (UniProt O96017); conditions: Compound concentration 1000.0 nM
[6] = biological target: Dual specificity protein kinase CLK4 (Homo sapiens) (UniProt Q9HAZ1); conditions: Compound concentration 1000.0 nM
[7] = biological target: Serine/threonine-protein kinase DCLK1 (Homo sapiens) (UniProt O15075); conditions: Compound concentration 1000.0 nM
[8] = biological target: Serine/threonine-protein kinase 17B (Homo sapiens) (UniProt O94768); conditions: Compound concentration 1000.0 nM
[9] = test system: Epidermal growth factor receptor (Homo sapiens), P00533 [L858R,T790M]; conditions: Compound concentration 1000.0 nM
[10] = biological target: Ephrin type-B receptor 4 (Homo sapiens) (UniProt P54760); conditions: Compound concentration 1000.0 nM
[11] = biological target: Receptor tyrosine-protein kinase erbB-3 (Homo sapiens) (UniProt P21860); conditions: Compound concentration 1000.0 nM
[12] = biological target: Mitogen-activated protein kinase 1 (Homo sapiens) (UniProt P28482); conditions: Compound concentration 1000.0 nM
[13] = test system: Receptor-type tyrosine-protein kinase FLT3 (Homo sapiens), P36888 [UNDEFINED MUTATION]; conditions: Compound concentration 1000.0 nM
[14] = biological target: Cyclin-G-associated kinase (Homo sapiens) (UniProt O14976); conditions: Compound concentration 1000.0 nM
Cyclin-G-associated kinase (Homo sapiens), sequence (O14976 whole entry): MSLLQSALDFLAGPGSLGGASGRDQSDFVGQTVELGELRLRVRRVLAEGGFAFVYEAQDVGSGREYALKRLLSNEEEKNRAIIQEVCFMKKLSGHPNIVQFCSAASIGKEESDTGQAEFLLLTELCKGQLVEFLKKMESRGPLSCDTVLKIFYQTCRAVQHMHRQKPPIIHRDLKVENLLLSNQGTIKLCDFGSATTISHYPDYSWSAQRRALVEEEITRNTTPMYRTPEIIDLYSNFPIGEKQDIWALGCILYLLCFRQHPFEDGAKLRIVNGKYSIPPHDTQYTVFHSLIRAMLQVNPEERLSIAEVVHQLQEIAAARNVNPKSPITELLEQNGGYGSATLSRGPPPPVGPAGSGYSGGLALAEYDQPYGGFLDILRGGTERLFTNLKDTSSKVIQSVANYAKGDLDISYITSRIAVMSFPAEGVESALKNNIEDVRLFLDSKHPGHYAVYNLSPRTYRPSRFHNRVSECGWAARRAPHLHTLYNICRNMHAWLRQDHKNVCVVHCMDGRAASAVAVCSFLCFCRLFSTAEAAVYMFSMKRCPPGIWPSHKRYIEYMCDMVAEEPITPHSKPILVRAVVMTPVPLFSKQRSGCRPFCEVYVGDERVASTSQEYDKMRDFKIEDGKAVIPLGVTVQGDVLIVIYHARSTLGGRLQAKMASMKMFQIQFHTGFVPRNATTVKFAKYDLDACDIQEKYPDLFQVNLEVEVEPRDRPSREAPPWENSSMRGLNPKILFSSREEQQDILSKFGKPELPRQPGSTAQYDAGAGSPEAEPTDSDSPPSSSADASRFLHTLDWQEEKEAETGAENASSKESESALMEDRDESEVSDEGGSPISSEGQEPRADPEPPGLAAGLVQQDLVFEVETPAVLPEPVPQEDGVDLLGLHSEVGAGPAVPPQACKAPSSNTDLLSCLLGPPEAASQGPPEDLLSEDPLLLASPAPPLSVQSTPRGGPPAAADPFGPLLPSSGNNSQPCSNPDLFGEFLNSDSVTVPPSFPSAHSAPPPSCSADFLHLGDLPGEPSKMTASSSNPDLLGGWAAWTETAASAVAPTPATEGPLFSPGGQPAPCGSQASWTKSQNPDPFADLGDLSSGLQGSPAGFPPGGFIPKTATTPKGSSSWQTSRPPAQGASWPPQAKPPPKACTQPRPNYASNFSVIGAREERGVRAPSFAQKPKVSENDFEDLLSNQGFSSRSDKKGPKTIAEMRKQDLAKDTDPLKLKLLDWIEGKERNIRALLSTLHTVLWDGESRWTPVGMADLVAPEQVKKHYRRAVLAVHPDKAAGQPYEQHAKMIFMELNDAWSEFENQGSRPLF

[15] = biological target: Glycogen synthase kinase-3 beta (Homo sapiens) (UniProt P49841); conditions: Compound concentration 1000.0 nM
[16] = biological target: Hormonally up-regulated neu tumor-associated kinase (Homo sapiens) (UniProt P57058); conditions: Compound concentration 1000.0 nM
[17] = biological target: Insulin-like growth factor 1 receptor (Homo sapiens) (UniProt P08069); conditions: Compound concentration 1000.0 nM
[18] = biological target: Insulin receptor (Homo sapiens) (UniProt P06213); conditions: Compound concentration 1000.0 nM
[19] = biological target: Mast/stem cell growth factor receptor Kit (Homo sapiens) (UniProt P10721); conditions: Compound concentration 1000.0 nM
[20] = biological target: LIM domain kinase 1 (Homo sapiens) (UniProt P53667); conditions: Compound concentration 1000.0 nM
[21] = biological target: Mitogen-activated protein kinase kinase kinase 15 (Homo sapiens) (UniProt Q6ZN16); conditions: Compound concentration 1000.0 nM
[22] = biological target: Mitogen-activated protein kinase kinase kinase 4 (Homo sapiens) (UniProt Q9Y6R4); conditions: Compound concentration 1000.0 nM
[23] = biological target: Dual specificity mitogen-activated protein kinase kinase 2 (Homo sapiens) (UniProt P36507); conditions: Compound concentration 1000.0 nM
[24] = biological target: Mitogen-activated protein kinase kinase kinase 11 (Homo sapiens) (UniProt Q16584); conditions: Compound concentration 1000.0 nM
[25] = biological target: Serine/threonine-protein kinase Nek2 (Homo sapiens) (UniProt P51955); conditions: Compound concentration 1000.0 nM
[26] = biological target: Serine/threonine-protein kinase NLK (Homo sapiens) (UniProt Q9UBE8); conditions: Compound concentration 1000.0 nM
[27] = biological target: Mitogen-activated protein kinase 12 (Homo sapiens) (UniProt P53778); conditions: Compound concentration 1000.0 nM
[28] = biological target: Cyclin-dependent kinase 15 (Homo sapiens) (UniProt Q96Q40); conditions: Compound concentration 1000.0 nM
Cyclin-dependent kinase 15 (Homo sapiens), sequence (Q96Q40 whole entry, canonical isoform): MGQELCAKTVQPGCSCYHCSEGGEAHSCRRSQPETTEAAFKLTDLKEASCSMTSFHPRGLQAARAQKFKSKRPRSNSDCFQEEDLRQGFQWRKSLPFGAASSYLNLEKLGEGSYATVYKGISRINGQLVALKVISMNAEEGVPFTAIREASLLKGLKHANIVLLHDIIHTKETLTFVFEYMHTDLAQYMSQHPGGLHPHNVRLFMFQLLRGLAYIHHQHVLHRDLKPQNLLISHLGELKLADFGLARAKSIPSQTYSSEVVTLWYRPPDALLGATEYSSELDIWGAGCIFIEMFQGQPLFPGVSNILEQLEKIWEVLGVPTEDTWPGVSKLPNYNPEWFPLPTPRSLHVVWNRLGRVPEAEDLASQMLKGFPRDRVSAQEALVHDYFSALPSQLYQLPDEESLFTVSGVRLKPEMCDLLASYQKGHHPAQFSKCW

[29] = test system: Phosphatidylinositol 4,5-bisphosphate 3-kinase catalytic subunit alpha isoform (Homo sapiens), P42336 [E545A]; conditions: Compound concentration 1000.0 nM
[30] = biological target: Protein kinase C delta type (Homo sapiens) (UniProt Q05655); conditions: Compound concentration 1000.0 nM
Protein kinase C delta type (Homo sapiens), sequence (Q05655 whole entry, looked up): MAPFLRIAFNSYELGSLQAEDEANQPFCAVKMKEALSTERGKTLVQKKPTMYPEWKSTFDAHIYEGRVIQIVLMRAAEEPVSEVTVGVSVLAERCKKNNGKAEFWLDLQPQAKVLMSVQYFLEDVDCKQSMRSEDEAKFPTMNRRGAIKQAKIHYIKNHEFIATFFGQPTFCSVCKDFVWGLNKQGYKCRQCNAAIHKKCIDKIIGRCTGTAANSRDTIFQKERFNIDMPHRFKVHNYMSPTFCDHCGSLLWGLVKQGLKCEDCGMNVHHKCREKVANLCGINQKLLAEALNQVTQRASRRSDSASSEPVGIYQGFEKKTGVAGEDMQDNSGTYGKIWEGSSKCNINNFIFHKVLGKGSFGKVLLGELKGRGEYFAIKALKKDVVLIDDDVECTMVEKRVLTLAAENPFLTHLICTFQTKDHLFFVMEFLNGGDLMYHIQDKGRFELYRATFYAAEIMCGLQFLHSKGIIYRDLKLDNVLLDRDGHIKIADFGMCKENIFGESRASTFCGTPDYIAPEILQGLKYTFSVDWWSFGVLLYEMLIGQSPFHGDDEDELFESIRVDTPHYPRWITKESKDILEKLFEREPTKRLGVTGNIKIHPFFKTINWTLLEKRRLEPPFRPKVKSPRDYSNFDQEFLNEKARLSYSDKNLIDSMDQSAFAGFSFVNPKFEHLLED

[31] = biological target: Protein kinase C epsilon type (Homo sapiens) (UniProt Q02156); conditions: Compound concentration 1000.0 nM
[32] = biological target: Protein kinase C eta type (Homo sapiens) (UniProt P24723); conditions: Compound concentration 1000.0 nM
Protein kinase C eta type (Homo sapiens), sequence (P24723 whole entry): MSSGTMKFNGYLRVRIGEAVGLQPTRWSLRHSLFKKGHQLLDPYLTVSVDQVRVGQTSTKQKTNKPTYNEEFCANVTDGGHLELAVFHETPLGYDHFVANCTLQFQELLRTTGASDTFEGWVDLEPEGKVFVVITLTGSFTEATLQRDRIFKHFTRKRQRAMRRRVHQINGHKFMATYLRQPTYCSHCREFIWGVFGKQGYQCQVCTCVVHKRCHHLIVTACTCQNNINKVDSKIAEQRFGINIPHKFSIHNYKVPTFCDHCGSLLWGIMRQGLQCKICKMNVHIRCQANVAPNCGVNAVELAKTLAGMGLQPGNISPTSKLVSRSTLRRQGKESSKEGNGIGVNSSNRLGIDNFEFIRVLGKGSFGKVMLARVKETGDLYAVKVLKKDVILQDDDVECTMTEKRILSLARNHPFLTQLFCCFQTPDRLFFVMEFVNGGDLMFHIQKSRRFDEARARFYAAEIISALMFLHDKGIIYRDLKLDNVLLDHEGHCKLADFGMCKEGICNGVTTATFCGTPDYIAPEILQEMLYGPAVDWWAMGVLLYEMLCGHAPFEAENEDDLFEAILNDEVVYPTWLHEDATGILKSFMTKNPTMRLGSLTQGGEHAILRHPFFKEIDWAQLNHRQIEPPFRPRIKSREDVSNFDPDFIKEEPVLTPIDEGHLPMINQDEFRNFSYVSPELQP

[33] = biological target: Ribosomal protein S6 kinase alpha-4 (Homo sapiens) (UniProt O75676); conditions: Compound concentration 1000.0 nM
[34] = biological target: Ribosomal protein S6 kinase alpha-1 (Homo sapiens) (UniProt Q15418); conditions: Compound concentration 1000.0 nM
[35] = biological target: Serine/threonine-protein kinase SIK1 (Homo sapiens) (UniProt P57059); conditions: Compound concentration 1000.0 nM
[36] = biological target: Tyrosine-protein kinase receptor TYRO3 (Homo sapiens) (UniProt Q06418); conditions: Compound concentration 1000.0 nM
[37] = biological target: Serine/threonine-protein kinase WNK3 (Homo sapiens) (UniProt Q9BYP7); conditions: Compound concentration 1000.0 nM
Serine/threonine-protein kinase WNK3 (Homo sapiens), sequence (Q9BYP7 whole entry): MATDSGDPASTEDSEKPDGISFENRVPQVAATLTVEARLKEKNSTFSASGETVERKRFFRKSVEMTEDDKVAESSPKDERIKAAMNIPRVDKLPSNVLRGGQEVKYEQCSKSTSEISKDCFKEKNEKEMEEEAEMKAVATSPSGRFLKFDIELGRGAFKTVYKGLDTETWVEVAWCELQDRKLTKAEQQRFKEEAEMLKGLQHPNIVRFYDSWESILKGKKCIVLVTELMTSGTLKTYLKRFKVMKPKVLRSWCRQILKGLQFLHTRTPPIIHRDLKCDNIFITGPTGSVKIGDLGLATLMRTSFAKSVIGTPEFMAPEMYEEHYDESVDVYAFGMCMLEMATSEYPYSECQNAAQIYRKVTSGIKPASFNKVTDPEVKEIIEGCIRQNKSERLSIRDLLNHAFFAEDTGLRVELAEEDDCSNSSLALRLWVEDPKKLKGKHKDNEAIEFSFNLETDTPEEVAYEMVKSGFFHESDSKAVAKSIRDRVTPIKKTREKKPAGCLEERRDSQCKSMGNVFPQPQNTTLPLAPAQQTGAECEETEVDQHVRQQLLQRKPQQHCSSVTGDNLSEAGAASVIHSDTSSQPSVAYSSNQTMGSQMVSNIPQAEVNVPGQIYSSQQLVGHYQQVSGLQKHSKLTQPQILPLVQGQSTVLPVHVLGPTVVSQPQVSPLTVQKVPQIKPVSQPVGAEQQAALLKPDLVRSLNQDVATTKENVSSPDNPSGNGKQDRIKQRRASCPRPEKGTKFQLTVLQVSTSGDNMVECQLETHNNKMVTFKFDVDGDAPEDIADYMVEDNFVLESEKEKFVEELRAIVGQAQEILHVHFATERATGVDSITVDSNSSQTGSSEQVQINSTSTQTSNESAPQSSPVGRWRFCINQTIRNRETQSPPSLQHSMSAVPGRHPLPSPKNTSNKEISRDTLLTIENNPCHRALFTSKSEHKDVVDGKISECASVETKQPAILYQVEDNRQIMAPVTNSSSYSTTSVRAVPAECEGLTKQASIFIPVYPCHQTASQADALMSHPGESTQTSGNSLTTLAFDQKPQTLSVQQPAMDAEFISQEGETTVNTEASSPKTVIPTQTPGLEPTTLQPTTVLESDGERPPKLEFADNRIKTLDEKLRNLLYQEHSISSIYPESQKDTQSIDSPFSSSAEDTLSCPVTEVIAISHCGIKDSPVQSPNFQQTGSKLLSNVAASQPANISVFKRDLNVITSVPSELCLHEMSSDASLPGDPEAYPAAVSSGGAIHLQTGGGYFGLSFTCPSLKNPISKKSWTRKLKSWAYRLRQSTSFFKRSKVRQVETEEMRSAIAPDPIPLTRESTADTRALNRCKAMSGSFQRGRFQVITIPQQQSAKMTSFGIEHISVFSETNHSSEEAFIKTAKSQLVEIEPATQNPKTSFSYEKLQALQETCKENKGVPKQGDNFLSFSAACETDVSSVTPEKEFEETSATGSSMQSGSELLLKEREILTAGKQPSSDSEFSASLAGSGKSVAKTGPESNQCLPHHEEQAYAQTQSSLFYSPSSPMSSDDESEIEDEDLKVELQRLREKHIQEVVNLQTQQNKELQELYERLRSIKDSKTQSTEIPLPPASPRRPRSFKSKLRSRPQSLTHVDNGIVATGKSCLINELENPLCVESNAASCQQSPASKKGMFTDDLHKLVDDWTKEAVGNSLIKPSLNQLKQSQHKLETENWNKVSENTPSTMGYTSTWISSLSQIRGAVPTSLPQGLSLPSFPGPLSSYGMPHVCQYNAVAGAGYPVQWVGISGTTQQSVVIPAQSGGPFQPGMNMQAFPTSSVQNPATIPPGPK

[38] = biological target: Tyrosine-protein kinase ZAP-70 (Homo sapiens) (UniProt P43403); conditions: Compound concentration 1000.0 nM
[39] = biological target: Beta-2 adrenergic receptor (Homo sapiens) (UniProt P07550); conditions: Compound concentration 10.0 uM
[40] = biological target: GABA-A receptor; anion channel (Rattus norvegicus) (UniProt O09028+P15431+P18506+P18508+P19969+P20236+P23574+P23576+P28471+P28473+P30191+P62813+P63079+P63138+Q91ZM7+Q9ES14); conditions: Compound concentration 10.0 uM

CS(=O)(=O)c1cc(C2(NC(=O)c3cncc4c3cnn4-c3ccc(F)cc3)CC2)ccn1 [BI 639667]
inactive: residual activity [1] 76% | residual activity [2] 100% | residual activity [3] 100% | residual activity [4] 89% | residual activity [5] 100% | residual activity [6] 100% | residual activity [7] 75% | residual activity [8] 83% | residual activity [9] 81% | residual activity [10] 100% | residual activity [11] 100% | residual activity [12] 94% | residual activity [13] 70% | residual activity [14] 85% | residual activity [15] 85% | residual activity [16] 100% | residual activity [17] 100% | residual activity [18] 100% | residual activity [19] 100% | residual activity [20] 100% | residual activity [21] 67% | residual activity [22] 87% | residual activity [23] 80% | residual activity [24] 100% | residual activity [25] 93% | residual activity [26] 100% | residual activity [27] 100% | residual activity [28] 100% | residual activity [29] 100% | residual activity [30] 100% | residual activity [31] 100% | residual activity [32] 100% | residual activity [33] 81% | residual activity [34] 79% | residual activity [35] 100% | residual activity [36] 91% | residual activity [37] 100% | residual activity [38] 71% | inhibition [39] -7.76% | inhibition [40] 3.75%

CS(=O)(=O)NCC[C@H](NC(=O)c1cncc2c1cnn2-c1ccc(F)cc1)c1ccnc(S(C)(=O)=O)c1 [BI 9307]
inactive: residual activity [1] 100% | residual activity [2] 100% | residual activity [3] 95% | residual activity [4] 100% | residual activity [5] 77% | residual activity [6] 85% | residual activity [7] 94% | residual activity [8] 100% | residual activity [9] 78% | residual activity [10] 100% | residual activity [11] 100% | residual activity [12] 100% | residual activity [13] 100% | residual activity [14] 100% | residual activity [15] 100% | residual activity [16] 100% | residual activity [17] 100% | residual activity [18] 92% | residual activity [19] 100% | residual activity [20] 100% | residual activity [21] 100% | residual activity [22] 84% | residual activity [23] 100% | residual activity [24] 100% | residual activity [25] 97% | residual activity [26] 100% | residual activity [27] 100% | residual activity [28] 79% | residual activity [29] 100% | residual activity [30] 76% | residual activity [31] 100% | residual activity [32] 80% | residual activity [33] 100% | residual activity [34] 100% | residual activity [35] 100% | residual activity [36] 94% | residual activity [37] 100% | residual activity [38] 80% | inhibition [39] -5.93% | inhibition [40] 10.4%
